Ki and Km data for two compounds are collected here from PMC10564941, “A morpheein equilibrium regulates catalysis in phosphoserine phosphatase SerB2 from Mycobacterium tuberculosis” (Communications Biology, 2023).

Data set [1] has as its target T1, MtSerB2 (phosphoserine phosphatase SerB2) (Mycobacterium tuberculosis, UniProt O53289).
T1 construct: full-length dimer fraction, His-tag cleaved
The experiment in a line: steady-state kinetics, malachite green phosphatase assay; SEC-UV/SAXS dimer-to-trimer shift. It counts as biochemical.

Data set [2] has as its system N[C@@H](COP(=O)(O)O)C(=O)O. The experiment in a line: purified protein. To be noted: Mg2+ ([…] MgCl2 in assay) active site; uncompetitive substrate inhibition.

T1 sequence (O53289 whole entry): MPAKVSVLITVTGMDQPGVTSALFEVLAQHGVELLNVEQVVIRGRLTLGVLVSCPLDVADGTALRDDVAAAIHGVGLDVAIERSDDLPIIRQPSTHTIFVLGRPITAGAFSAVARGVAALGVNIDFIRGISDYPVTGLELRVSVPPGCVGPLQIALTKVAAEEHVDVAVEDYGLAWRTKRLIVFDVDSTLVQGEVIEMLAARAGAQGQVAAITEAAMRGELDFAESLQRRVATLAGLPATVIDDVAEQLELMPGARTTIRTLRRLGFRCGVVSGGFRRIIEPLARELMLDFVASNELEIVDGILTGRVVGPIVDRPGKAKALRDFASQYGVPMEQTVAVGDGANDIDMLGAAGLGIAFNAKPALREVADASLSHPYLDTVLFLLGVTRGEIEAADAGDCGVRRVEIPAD

Usually Ki stands for a measure of affinity in units of concentration, obtained from inhibition or displacement. Take `N[C@@H](CO)C(=O)O` [L-Ser]: the Ki in data set [1] was found to be 22 ± 5.3 µM.
The term Km denotes the substrate concentration at which the rate is half of its maximum. Take “MtSerB2 (phosphoserine phosphatase SerB2) (Mycobacterium tuberculosis H37Rv)”: the Km in data set [2] is 480 ± 170 µM.
